Cc1nc2n(c(=O)c1CCN1CCC(c3noc4cc(F)ccc34)CC1)CCCC2
solubility (mole fraction)
Settings	278.15 K	283.15 K	288.15 K	293.15 K	298.15 K	303.15 K	308.15 K	313.15 K	318.15 K	323.15 K
in acetone	0.00085	0.00095	0.00127	0.00143	0.00175	0.00219	0.00284	0.00336	0.00417	0.00507
in cumene	0.00122	0.00147	0.00207	0.00219	0.0026	0.00309	0.00376	0.00481	0.00552	0.0066
in ethanol	0.00096	0.00108	0.00131	0.00153	0.00201	0.00248	0.0033	0.00415	0.0051	0.00677
in ethyl acetate	0.00116	0.00128	0.00167	0.00185	0.00216	0.00263	0.00331	0.00397	0.00485	0.0058
in isopropanol	0.00036	0.00046	0.0006	0.0007	0.00103	0.00136	0.00203	0.00253	0.0032	0.00447
in methanol	0.00202	0.0023	0.00272	0.00329	0.00396	0.00487	0.00615	0.0077	0.0099	0.0128
in n-butanol	0.00152	0.00173	0.0022	0.00263	0.00347	0.00443	0.00593	0.00753	0.00963	0.0124
in n-propanol	0.00139	0.00155	0.00197	0.00238	0.00305	0.00381	0.00517	0.00651	0.00839	0.0109
in toluene	0.0038	0.00418	0.00521	0.00559	0.00667	0.008	0.00998	0.0117	0.014	0.0167

— BigSolDB 2.1
